Data as given in ChEMBL document CHEMBL3885881, “DrugMatrix”.

Species on record: Rattus norvegicus
Assay: DrugMatrix - Regimen: Daily Repeat
Type: toxicity, organism-based, Sprague-Dawley
Design: regimen Daily Repeat, gender Male, age 6-8 weeks
Conditions: in vivo, sc, 1.75 mg/kg, route mini-PUMP - SUBCUTANEOUS, dose level High, vehicle 100 % SALINE; for ABSOLUTE BASOPHIL / ABSOLUTE EOSINOPHIL / ABSOLUTE LYMPHOCYTE / ABSOLUTE MONOCYTE / ABSOLUTE SEGMENTED NEUTROPHIL / BASOPHIL / EOSINOPHIL / ERYTHROCYTE COUNT / HEMATOCRIT / HEMOGLOBIN / LEUKOCYTE COUNT / LYMPHOCYTE / MEAN CORPUSCULAR HEMOGLOBIN / MEAN CORPUSCULAR HEMOGLOBIN CONCENTRATION / MEAN CORPUSCULAR VOLUME / MONOCYTE / NEUTROPHIL / NUCLEATED RED BLOOD CELLS / PLATELET COUNT: tissue Blood; for ALANINE AMINOTRANSFERASE / ALBUMIN / ALKALINE PHOSPHATASE / ASPARTATE AMINOTRANSFERASE / BLOOD UREA NITROGEN / CARBON DIOXIDE / CHLORIDE / CHOLESTEROL / CREATININE / GLUCOSE / LACTATE DEHYDROGENASE / LIPASE / PHOSPHORUS / POTASSIUM / SODIUM / TOTAL BILIRUBIN / TOTAL PROTEIN / URIC ACID: tissue Plasma

## NC[C@H](O)c1ccc(O)c(O)c1 [NOREPINEPHRINE]
72 h, time 3 day
  ABSOLUTE BASOPHIL: 0 CELLS/uL
  ABSOLUTE EOSINOPHIL: 0 CELLS/uL
  ABSOLUTE LYMPHOCYTE: 13450.33 CELLS/uL
  ABSOLUTE MONOCYTE: 275.33 CELLS/uL
  ABSOLUTE SEGMENTED NEUTROPHIL: 1174.33 CELLS/uL
  BASOPHIL: 0%
  EOSINOPHIL: 0%
  ERYTHROCYTE COUNT: 6.14 x10E6/uL
  HEMATOCRIT: 36.87%
  HEMOGLOBIN: 13.53 G/DL
  LEUKOCYTE COUNT: 14.9 x10E3/uL
  LYMPHOCYTE: 90.67%
  MEAN CORPUSCULAR HEMOGLOBIN: 22.03 pg
  MEAN CORPUSCULAR HEMOGLOBIN CONCENTRATION: 36.73 G/DL
  MEAN CORPUSCULAR VOLUME: 60 fL
  MONOCYTE: 2%
  NEUTROPHIL: 7.33%
  NUCLEATED RED BLOOD CELLS: 0.33 /100WBC
  PLATELET COUNT: 1242.33 x10E3/uL
  ALANINE AMINOTRANSFERASE: 42.67 u/L
  ALBUMIN: 4.07 G/DL
  ALKALINE PHOSPHATASE: 322.67 u/L
  ASPARTATE AMINOTRANSFERASE: 89.33 u/L
  BLOOD UREA NITROGEN: 16.67 mg/dL
  CARBON DIOXIDE: 25 mmol/L
  CHLORIDE: 104.33 MEQ/L
  CHOLESTEROL: 72.67 mg/dL
  CREATININE: 0.21 mg/dL
  GLUCOSE: 169 mg/dL
  LACTATE DEHYDROGENASE: 701 u/L
  LIPASE: 9.67 u/L
  PHOSPHORUS: 11.73 mg/dL
  POTASSIUM: 6.75 MEQ/L
  SODIUM: 150.2 MEQ/L
  TOTAL BILIRUBIN: 0.17 mg/dL
  TOTAL PROTEIN: 6.3 G/DL
  URIC ACID: 1.8 mg/dL
120 h, time 5 day
  ABSOLUTE BASOPHIL: 0 CELLS/uL
  ABSOLUTE EOSINOPHIL: 0 CELLS/uL
  ABSOLUTE LYMPHOCYTE: 12875 CELLS/uL
  ABSOLUTE MONOCYTE: 478 CELLS/uL
  ABSOLUTE SEGMENTED NEUTROPHIL: 2047 CELLS/uL
  BASOPHIL: 0%
  EOSINOPHIL: 0%
  ERYTHROCYTE COUNT: 6.43 x10E6/uL
  HEMATOCRIT: 38.73%
  HEMOGLOBIN: 14.3 G/DL
  LEUKOCYTE COUNT: 15.4 x10E3/uL
  LYMPHOCYTE: 84.33%
  MEAN CORPUSCULAR HEMOGLOBIN: 22.23 pg
  MEAN CORPUSCULAR HEMOGLOBIN CONCENTRATION: 36.93 G/DL
  MEAN CORPUSCULAR VOLUME: 60.27 fL
  MONOCYTE: 3%
  NEUTROPHIL: 12.67%
  NUCLEATED RED BLOOD CELLS: 0 /100WBC
  PLATELET COUNT: 1321.67 x10E3/uL
  ALANINE AMINOTRANSFERASE: 45 u/L
  ALBUMIN: 4.47 G/DL
  ALKALINE PHOSPHATASE: 289.33 u/L
  ASPARTATE AMINOTRANSFERASE: 74.33 u/L
  BLOOD UREA NITROGEN: 14.67 mg/dL
  CARBON DIOXIDE: 28 mmol/L
  CHLORIDE: 103 MEQ/L
  CHOLESTEROL: 70.67 mg/dL
  CREATININE: 0.13 mg/dL
  GLUCOSE: 203 mg/dL
  LACTATE DEHYDROGENASE: 122 u/L
  LIPASE: 9.33 u/L
  PHOSPHORUS: 12.63 mg/dL
  POTASSIUM: 6.59 MEQ/L
  SODIUM: 150.5 MEQ/L
  TOTAL BILIRUBIN: 0.17 mg/dL
  TOTAL PROTEIN: 6.8 G/DL
  URIC ACID: 2.17 mg/dL
[…], time 14 day
  ABSOLUTE BASOPHIL: 0 CELLS/uL
  ABSOLUTE EOSINOPHIL: 45.6 CELLS/uL
  ABSOLUTE LYMPHOCYTE: 15398.2 CELLS/uL
  ABSOLUTE MONOCYTE: 562 CELLS/uL
  ABSOLUTE SEGMENTED NEUTROPHIL: 3234.2 CELLS/uL
  BASOPHIL: 0%
  EOSINOPHIL: 0.2%
  ERYTHROCYTE COUNT: 6.59 x10E6/uL
  HEMATOCRIT: 38.5%
  HEMOGLOBIN: 14.08 G/DL
  LEUKOCYTE COUNT: 19.24 x10E3/uL
  LYMPHOCYTE: 80.6%
  MEAN CORPUSCULAR HEMOGLOBIN: 21.36 pg
  MEAN CORPUSCULAR HEMOGLOBIN CONCENTRATION: 36.56 G/DL
  MEAN CORPUSCULAR VOLUME: 58.42 fL
  MONOCYTE: 3%
  NEUTROPHIL: 16.2%
  NUCLEATED RED BLOOD CELLS: 0 /100WBC
  PLATELET COUNT: 980.2 x10E3/uL
  ALANINE AMINOTRANSFERASE: 57.6 u/L
  ALBUMIN: 4.18 G/DL
  ALKALINE PHOSPHATASE: 349 u/L
  ASPARTATE AMINOTRANSFERASE: 86 u/L
  BLOOD UREA NITROGEN: 15.8 mg/dL
  CARBON DIOXIDE: 30 mmol/L
  CHLORIDE: 102.6 MEQ/L
  CHOLESTEROL: 72.4 mg/dL
  CREATININE: 0.22 mg/dL
  GLUCOSE: 187.4 mg/dL
  LACTATE DEHYDROGENASE: 105.4 u/L
  LIPASE: 8.8 u/L
  PHOSPHORUS: 13.42 mg/dL
  POTASSIUM: 7.42 MEQ/L
  SODIUM: 147.96 MEQ/L
  TOTAL BILIRUBIN: 0.16 mg/dL
  TOTAL PROTEIN: 6.34 G/DL
  URIC ACID: 2.42 mg/dL
